Laboratory results reported in patent publication US7507727B2, “Substituted quinobenzoxazine analogs and methods of using thereof” (Cylene Pharmaceuticals, Inc., priority 2003, dated 2009).
pIC50: −log10 of the molar value. Like-named read-outs stand apart in the source and are kept apart here.

Columns and labels:
HeLa cells = test: MTS cell proliferation and/or cytotoxicity assay; assay type: cell-based, Human
Procedure: Cell culture. Human cervical epithelial cells (HeLa cells) were obtained from American Type Culture Collection (Manassas, Va.). Cells were grown in Eagle's minimum essential medium (MEM, Hyclone, Utah) supplemented with 2 mM Glutamine, 0.1 mM nonessential amino acid, 1 mM Na Pyruvate, 1.5 g/L NaHCO3, 50 mg/L gentamicin, and 10% fetal bovine serum (Hyclone, USA) in a humidified atmosphere of 5% CO2 at 37° C.
MTS assays. Antiproliferative effects of the compounds were tested by the CellTiter 96 AQueous assay (Promega, WI), which is a calorimetric assay for determining the number of viable cells. (See, e.g., Wang, L., et al., Methods Cell Sci (1996) 18:249-255). In one example, cells (4,500 cells/well) were seeded on 96 well flat bottom plates (Corning, N.Y.) in 100 μl of culture medium without any anticancer drug on day 0, and the culture medium was exchanged for that //contained anticancer drugs at various concentrations on day 1. After incubation for 3 days under normal growth conditions (on day 4), the monolayers were washed once in PBS, and the medium was switched to 100 μl of PBS in each of the 96 well plate. After mixing MTS and PMS at the ratio of 20:1, 20 μl of MTS/PMS solution was added to each of the 96 well plate and incubated for 4 hours in a humidified atmosphere of 5% CO2 at 37° C. The absorbance was read at 490 nm using FLUOstar Galaxy 96 well plate reader (BMG Labtechnologies, Germany). μM concentrations (MTS data) reported in Table 1 are concentrations at which 50% of antiproliferative cell response is seen.

[1] = biological target: c-Myc template DNA (c-myc quadruplex); test: Quadruplex binding / stop assay (Taq polymerase arrest, capillary electrophoresis); conditions: for IC50: read-out: Stop Data c-Myc μM, concentration at which 50% of the DNA was arrested (arrested:full-length 1:1); for pIC50: read-out: S DATA, Table 1D, stop assay data
[2] = Homo sapiens, HeLa, 72 h, concentration at which 50% of antiproliferative cell response is seen, 3 days incubation, read-out: MTS Data Hella
[3] = Homo sapiens, HeLa, HeLa cells, MTS, read-out: Hela MTS
[4] = concentration at which 50% of antiproliferative cell response is seen, 3 days incubation, read-out: MTS Data Hella

| SMILES | IC50 [1] [µM] | pIC50 [1] | pIC50 (HeLa cells; [2]) | pIC50 (HeLa cells; [3]) | pIC50 (HeLa cells; [4]) |
| --- | --- | --- | --- | --- | --- |
| CN1CCCC1CCNC(=O)c1cn2c3c(c(N[C@H]4CN5CCC4CC5)c(F)cc3c1=O)Oc1cc3ccccc3cc1-2 (some centres unmarked) [compound 536] | 0.375 |  | 6.51 |  |  |
| CN(C)CCCCNC(=O)c1cn2c3c(c(N4CC[C@H](N)C4)c(F)cc3c1=O)Oc1cc3ccccc3cc1-2 [compound 475] | 0.58 |  | 6.62 |  |  |
| O=C(CCN1CCCC1)N[C@@H]1CCN(c2c(F)cc3c(=O)c(C(=O)NCCN4CCCC4)cn4c3c2Oc2cc3c(cc2-4)oc2ccccc23)C1 [compound 376] | 0.75 |  | 5.62 |  |  |
| CN1CCCC1CCNC(=O)c1cn2c3c(c(N4CCC(CCCC5CCNCC5)CC4)c(F)cc3c1=O)Oc1cc3ccccc3cc1-2 (centres unmarked) [compound 535] | 0.375 |  | 6.51 |  |  |
| O=C(NCCN1CCCC1)c1cn2c3c(c(N4CCC(c5cnccn5)C4)c(F)cc3c1=O)Oc1ccccc1-2 (centres unmarked) [compound 32] | 3 |  | 6.22 |  |  |
| CN1CCN(CCC(=O)N[C@@H]2CCN(c3c(F)cc4c(=O)c(C(=O)NCCN5CCCC5)cn5c4c3Oc3cc4c(cc3-5)oc3ccccc34)C2)CC1 [compound 533] | 0.375 |  | 6.40 |  |  |
| NC1CCN(c2c(F)cc3c(=O)c(C(=O)NCCN4CCOCC4)cn4c3c2Oc2cc3c(cc2-4)oc2ccccc23)C1 (centres unmarked) [compound 530] | 0.375 |  | 6.14 |  |  |
| O=C(NCCCN1CCOCC1)c1cn2c3c(c(N4CC5CCCNC5C4)c(F)cc3c1=O)Oc1cc3ccccc3cc1-2 (centres unmarked) [compound 547] | 0.375 |  | 7.00 |  |  |
| O=C(NCCN1CCCC1)c1cn2c3c(c(N4CC5CCCNC5C4)ccc3c1=O)Oc1cc3ccccc3cc1-2 (centres unmarked) [compound 1732] |  | 6.43 |  | 6.70 |  |
| CN1CCCC1CCNC(=O)c1cn2c3c(c(NC[C@@H]4CCCO4)c(F)cc3c1=O)Oc1cc3ccccc3cc1-2 (some centres unmarked) [compound 26] | 4 |  |  |  | 6.14 |
| CN1CCCC1CCNC(=O)c1cn2c3c(c(NCC4CC(C)(C)N(O)C4(C)C)c(F)cc3c1=O)Oc1cc3ccccc3cc1-2 (centres unmarked) [compound 513] | 0.375 |  | 5.51 |  |  |
| CC1CCCCN1CCCNC(=O)c1cn2c3c(c(N4CCC(N)C4)c(F)cc3c1=O)Oc1cc3ccccc3cc1-2 (centres unmarked) [compound 387] | 0.75 |  | 6.48 |  |  |
| CN1CCN(CCCNC(=O)c2cn3c4c(c(N5CC[C@@H](N)C5)c(F)cc4c2=O)Oc2cc4ccccc4cc2-3)CC1 [compound 538] | 0.375 |  | 6.55 |  |  |
| CN1CCCC1CCNC(=O)c1cn2c3c(c(NCCc4ccc(O)c(O)c4)c(F)cc3c1=O)Oc1cc3ccccc3cc1-2 (centres unmarked) [compound 1680] |  | 6.12 |  | 5.74 |  |
| CN(C)CCCCNC(=O)c1cn2c3c(c(N4CC5CCCNC5C4)c(F)cc3c1=O)Oc1cc3ccccc3cc1-2 (centres unmarked) [compound 1639] |  | 6.43 |  | 7.00 |  |
| N[C@H]1CCN(c2c(F)cc3c(=O)c(C(=O)NCCN4CCCC4)cn4c3c2Oc2ccccc2-4)C1 [compound 35] | 3 |  |  |  | 6.68 |
| N[C@H]1CCN(c2c(F)cc3c(=O)c(C(=O)NCCN4CCOCC4)cn4c5cc6c(cc5oc2c34)c(=O)c2ccccc26)C1 [compound 579] | 0.18 |  | 6.31 |  |  |
| CN1CCCC1CCNC(=O)c1cn2c3c(c(NCCc4ccc(O)c(O)c4)c(F)cc3c1=O)Oc1cc3ccccc3cc1-2 (centres unmarked) [compound 381] | 0.75 |  | 5.74 |  |  |
| NCCCCNC(=O)c1cn2c3c(c(N4CC[C@@H](N)C4)c(F)cc3c1=O)Oc1cc3ccccc3cc1-2 [compound 528] | 0.375 |  | 6.12 |  |  |
| CN1CCCC1CCNC(=O)c1cn2c3c(c(N4CCC(CCCC5CCNCC5)CC4)c(F)cc3c1=O)Oc1cc3ccccc3cc1-2 (centres unmarked) [compound 1494] |  | 6.43 |  | 6.51 |  |
| CN1CCCC1CCNC(=O)c1cn2c3c(c(N4CCC(N)CC4)c(F)cc3c1=O)Oc1cc3ccccc3cc1-2 (centres unmarked) [compound 1616] |  | 5.76 |  |  |  |
| CN(C)/C=N/C1CCN(c2c(F)cc3c(=O)c(C(=O)NCCC4CCCN4C)cn4c3c2Oc2cc3ccccc3cc2-4)C1 (centres unmarked) [compound 98] | 2.5 |  |  |  |  |
| CN(C)CC(C)(C)CNC(=O)c1cn2c3c(c(N4CCC(N)C4)c(F)cc3c1=O)Oc1ccccc1-2 (centres unmarked) [compound 1625] |  | < 4.82 |  |  |  |
| N=C(N)NCCCCNC(=O)c1cn2c3c(c(NCCN4CCCC4)c(F)cc3c1=O)Oc1cc3ccccc3cc1-2 [compound 1655] |  | 6.00 |  |  |  |
| CN(C)CCCCNc1c(F)cc2c(=O)c(C(=O)N3CC[C@H](NC(=O)OC(C)(C)C)C3)cn3c4cc5c(cc4oc1c23)c(=O)c1ccccc15 [compound 207] | 1.75 |  |  |  |  |
| CN1CCCC1CCNC(=O)c1cn2c3c(c(/N=C4\CCCCN4)c(F)cc3c1=O)Oc1cc3ccccc3cc1-2 (centres unmarked) [compound 253] | 1.75 |  |  |  |  |

Further lines, with some results ahead:

| IC50 [1] [µM] | pIC50 [1] | SMILES | pIC50 (HeLa cells; [2]) | pIC50 (HeLa cells; [3]) | pIC50 (HeLa cells; [4]) |
| --- | --- | --- | --- | --- | --- |
| 1.75 |  | CN(C)CCCCNC(=O)c1cn2c3c(c(N4CC[C@H](N)C4)c(F)cc3c1=O)Oc1ccccc1-2 [compound 108] | 6.34 |  |  |
| 0.75 |  | CN1CCCC1CCNC(=O)c1cn2c3c(c(NCC(O)c4ccccc4)c(F)cc3c1=O)Oc1cc3ccccc3cc1-2 (centres unmarked) [compound 392] | 6.72 |  |  |
| 0.375 |  | O=C(NCCN1CCCC1)c1cn2c3c(c(N4CC5CCCNC5C4)ccc3c1=O)Oc1cc3ccccc3cc1-2 (centres unmarked) [compound 544] | 6.70 |  |  |
|  | 6.19 | N=C(N)NCCNC(=O)c1cn2c3c(c(N4CC5CCCNC5C4)c(F)cc3c1=O)Oc1cc3ccccc3cc1-2 (centres unmarked) [compound 1646] |  | 6.40 |  |
| 0.375 |  | CN(C)CCCCNc1c(F)cc2c(=O)c(C(=O)NCCCN3CCOCC3)cn3c4cc5c(cc4oc1c23)c(=O)c1ccccc15 [compound 522] | 5.77 |  |  |
| 0.5 |  | CN1CCCC1CCNC(=O)c1cn2c3c(c(N4CC[C@@H](NC(=O)CCN5CCCCC5)C4)c(F)cc3c1=O)Oc1cc3c(cc1-2)oc1ccccc13 (some centres unmarked) [compound 484] | 5.51 |  |  |
| 0.375 |  | CN1CCCC1CCNC(=O)c1cn2c3c(c(N4CCC(N)C4)ccc3c1=O)Oc1cc3ccccc3cc1-2 (centres unmarked) [compound 529] | 6.12 |  |  |
| 0.18 |  | CN1CCN(CCCNC(=O)c2cn3c4c(c(N5CC[C@@H](NC(=O)CCNCCC6CCCN6C)C5)c(F)cc4c2=O)Oc2cc4c(cc2-3)oc2ccccc24)CC1 (some centres unmarked) [compound 573] | 5.35 |  |  |
| 0.75 |  | CN1CCN(CCCNC(=O)c2cn3c4c(c(NCCC5CCCN5C)c(F)cc4c2=O)Oc2cc4c(cc2-3)oc2ccccc24)CC1 (centres unmarked) [compound 364] | 5.42 |  |  |
| 1 |  | CN1CCCC1CCNC(=O)c1cn2c3c(c(NCCN4CCCC4)c(F)cc3c1=O)Oc1cc3c(cc1-2)oc1ccccc13 (centres unmarked) [compound 306] | 5.49 |  |  |
| 0.375 |  | CN1CCN(CCCNC(=O)c2cn3c4cc5c(cc4oc4c(NCCN6CCCC6)c(F)cc(c2=O)c43)c(=O)c2ccccc25)CC1 [compound 524] | 5.82 |  |  |
| 0.5 |  | CC1(C)CC(NC(=O)c2cn3c4c(c(N5CC6CCCNC6C5)c(F)cc4c2=O)Oc2cc4ccccc4cc2-3)CC(C)(C)N1 (centres unmarked) [compound 487] | 6.74 |  |  |
| 0.375 |  | CC1(C)CC(NC(=O)c2cn3c4c(c(N5CCC(N)C5)c(F)cc4c2=O)Oc2cc4ccccc4cc2-3)CC(C)(C)N1 (centres unmarked) [compound 539] | 6.55 |  |  |
| 0.58 |  | CN1CCCC1CCNC(=O)c1cn2c3c(c(N4CC[C@H](N)C4)c(F)cc3c1=O)Oc1cc3ccccc3cc1-2 (some centres unmarked) [compound 474] | 6.43 |  |  |
| 1.75 |  | N[C@@H]1CCN(c2c(F)cc3c(=O)c(C(=O)NCCN4CCCC4)cn4c3c2Oc2ccccc2-4)C1 [compound 112] | 6.66 |  |  |
|  | 5.54 | O=C(NCCN1CCCC1)c1cn2c3c(c(N4CCC(c5cnccn5)C4)c(F)cc3c1=O)Oc1ccc(Cl)cc1-2 (centres unmarked) [compound 1795] |  | 6.30 |  |
| 0.75 |  | O=C(NCCN1CCOCC1)c1cn2c3c(c(NCCCN4CCOCC4)c(F)cc3c1=O)Oc1cc3c(cc1-2)oc1ccccc13 [compound 361] | 5.38 |  |  |
| 3 |  | CN1CCCC1CCNC(=O)c1cn2c3c(c(NC[C@@H]4CCCO4)c(F)cc3c1=O)Oc1cc3ccccc3cc1-2 (some centres unmarked) [compound 33] |  |  | 6.54 |
| 0.5 |  | O=C(NCCN1CCCC1)c1cn2c3cc4oc5cc([N+](=O)[O-])ccc5[nH]c4cc3oc3c(NCCN4CCCC4)c(F)cc(c1=O)c32 [compound 479] | 5.13 |  |  |
| 0.18 |  | CN(C)CCCCNC(=O)c1cn2c3cc4c(cc3oc3c(NCCCCN(C)C)c(F)cc(c1=O)c32)c(=O)c1ccccc14 [compound 576] | 5.68 |  |  |
| 0.375 |  | CN(C)/C=N/CCCCNC(=O)c1cn2c3c(c(N4CC[C@@H](N)C4)c(F)cc3c1=O)Oc1cc3ccccc3cc1-2 [compound 503] | 5.40 |  |  |
| 0.75 |  | O=C(NCCCN1CCOCC1)c1cn2c3cc4oc5cc([N+](=O)[O-])ccc5[nH]c4cc3oc3c(NCCCN4CCOCC4)c(F)cc(c1=O)c32 [compound 415] |  |  |  |
